{
  "source": "paper PMC7465040",
  "about": "“Cytotoxic and Anti-Plasmodial Activities of Stephania dielsiana Y.C. Wu Extracts and the Isolated Compounds” (Molecules, 2020)",
  "key": {"184B5": {"test_system": "184B5", "assay": "SRB cell proliferation assay, 184B5 non-cancer cells", "type": "cell-based, human", "settings": "for IC50: Homo sapiens, 184B5, read-out: IC50 (μM ± SD) 184B5", "procedure": "(§1) In vitro anticancer study: The in vitro anti-proliferative tests were carried out as described previously, using aliquots of the cell lines used therein. Briefly, HeLa, MDA-MB-231 and MDA-MB-468, MCF7, and 184B5 and MCF 10A cell lines were purchased from ATCC. The identity of the cell lines presented in this study were verified by short tandem repeat profiling by Genetica DNA Laboratories (www.celllineauthentication.com) (April 8, 2015). MCF10A was grown in DMEM F12 medium supplemented with 0.02 μg/mL epidermal growth factor, 10% FBS, 10 μg/mL insulin and […] hydrocortisone. MDA-MB-468 were grown in DMEM supplemented with 10% FBS and antibiotics cocktail (100 μg/mL streptomycin, 100 units/mL penicillin and 250 ng/mL amphotericin B). SRB cell proliferation assays were carried out as previously described, with some minor modifications. The concentration range for all tested cell lines were from 100–0.39 μg/mL for extracts and 100–0.39 μM for pure compounds. […] All experiments were carried out at least twice."}, "MCF 10A": {"test_system": "MCF 10A", "assay": "SRB cell proliferation assay, MCF10A non-cancer cells", "type": "cell-based", "settings": "Homo sapiens, read-out: IC50 (μM ± SD) MCF 10A", "procedure": "as §1"}, "MDA-MB-231": {"test_system": "MDA-MB-231", "assay": "SRB cell proliferation assay, MDA-MB-231", "type": "cell-based, human", "procedure": "as §1"}, "MDA-MB-231 cells": {"test_system": "MDA-MB-231 cells", "assay": "Annexin V staining / IncuCyte apoptosis and proliferation assay", "type": "cell-based, human", "procedure": "Annexin V staining: Cell death mechanism and cell proliferation assays were analysed using the IncuCyte Apoptosis Assay method using the Annexin V Green reagent (Essen Biosciences, Ann Arbor, MI, USA) and the IncuCyte S3 and IncuCyte ZOOM software (Version 2018B, Bohemia, NY, USA) according to supplier’s protocol. Statistical analysis was carried out in Graph Pad Prism 5. All experiments were carried out at least twice."}, "MDA-MB-468": {"test_system": "MDA-MB-468", "assay": "SRB cell proliferation assay, MDA-MB-468", "type": "cell-based, human", "procedure": "as §1"}, "Aurora B": {"molecular_target": "T1, Aurora B (Homo sapiens, UniProt Q96GD4)", "T1 construct": "purchased Promega", "T1 sequence (Q96GD4 whole entry)": "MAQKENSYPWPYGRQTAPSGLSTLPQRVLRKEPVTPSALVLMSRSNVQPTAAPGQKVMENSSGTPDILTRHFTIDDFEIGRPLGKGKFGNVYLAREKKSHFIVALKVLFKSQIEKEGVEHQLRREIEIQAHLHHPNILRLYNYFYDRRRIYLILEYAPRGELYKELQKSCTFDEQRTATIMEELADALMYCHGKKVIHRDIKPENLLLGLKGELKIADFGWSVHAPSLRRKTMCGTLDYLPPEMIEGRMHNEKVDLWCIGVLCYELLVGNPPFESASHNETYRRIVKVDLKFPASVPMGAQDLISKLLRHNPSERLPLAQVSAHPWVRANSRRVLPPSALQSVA", "assay": "In vitro kinase assay (ADP-Glo), Aurora B", "type": "biochemical", "settings": "± standard deviation, n = 2", "procedure": "In vitro kinase assay: The Aurora A and B kinase assays were carried out using the Promega ADP-Glo based Kinase Activity Profiling system. The protocols for the Aurora A/(Myelin Basic Protein (MBP) and Aurora B/MBP assay kits were according to those recommended by the suppliers. The concentration range used was from 20 μM–39.1 nM in 384-well plates. The luminescent output from the kinase assay was read on a Biotek Synergy H4 plate reader."}, "HeLa": {"test_system": "HeLa", "assay": "SRB cell proliferation assay, HeLa", "type": "cell-based, human", "settings": "for IC50: 72 h, Table 2A, SRB, read-out: IC50 (μM ± SD) HeLa", "procedure": "as §1"}, "[1]": {"test_system": "chloroquine-resistant W2 P. falciparum strain", "assay": "In vitro anti-plasmodial assay (HRP2 ELISA), W2", "type": "cell-based, Plasmodium falciparum", "settings": "for IC50: 72 h, HRP2 ELISA, mean of five experiments, read-out: IC50 (μM ± SD) W2", "procedure": "(§2) Parasites were grown in A-positive human blood (Etablissement Français du Sang, Marseille, France) under controlled atmospheric conditions that consisted of 10% O2, 5% CO2, and 85% N2 at 37 °C with a humidity of 95%.\n(§3) In vitro anti-plasmodial assay: The two P. falciparum strains 3D7 and W2 were synchronized twice with sorbitol before use. The clonality of these strains was verified both in our laboratory and in an independent laboratory from the Worldwide Anti-malarial Resistance Network (WWARN) by PCR genotyping of the polymorphic genetic markers msp1 and msp2 and microsatellite loci. The compounds were re-suspended in methanol or DMSO 5% (v/v) and then diluted in methanol to obtain final concentrations ranging from 0.008 to 500 μg/mL (final concentration of 0.5% of methanol or DMSO). […] The plates were incubated for 72 h at 37 °C in controlled atmospheric conditions 5% CO2, 10% O2, and […]. After thawing the plates, haemolysed cultures were homogenized by vortexing the plates. Both the success of the drug susceptibility assay and the appropriate volume of haemolysed culture to use for each assay were determined for each clinical isolate during a preliminary HRP2 ELISA. Both the pre-test and subsequent ELISA assays were performed using a commercial kit (Malaria Ag Celisa, ref KM2159, Cellabs PTY LTD, Brookvale, Australia) according to the manufacturer’s recommendation. The optical density (OD) of each sample was measured with a spectrophotometer (Safire 2, Tecan, Lyon, France). […] The anti-plasmodial in vitro assay was performed five times for each product. The IC50 values represented the mean value calculated from five experiments. According to Hout, a selectivity index (SI) was based on the ratio between anti-parasitic and cytotoxic activities. In the case of our study, a SI was calculated between non-tumorigenic cell line 184B5 and parasites 3D7 or W2 and/or MCF10A and these two parasites."}, "[2]": {"test_system": "chloroquine-susceptible 3D7 P. falciparum strain", "assay": "In vitro anti-plasmodial assay (HRP2 ELISA), 3D7", "type": "cell-based, Plasmodium falciparum", "settings": "for IC50: 72 h, HRP2 ELISA, mean of five experiments, read-out: IC50 (μM ± SD) 3D7", "procedure": "as §2, §3"}, "[3]": {"test_system": "Aurora A, B, and C phosphorylation in HeLa cells arrested in mitosis", "assay": "Western blot, autophosphorylation of Aurora kinases", "type": "cell-based, human", "settings": "20 μM, 12 h", "procedure": "Western Blot analysis: Western blotting was carried out as described previously. The primary antibodies used were from Cell Signaling (Histone H3; p-Histone H3^S10 and Phospho-Aurora A (Thr288)/Aurora B (Thr232)/Aurora C (Thr198)) and used at recommended dilution. For cell synchronization at prometaphase, HeLa cells were treated with 50 ng/mL nocodazole (NZ) (Santa Cruz Biotechnology) for 12 h. All experiments were carried out at least twice."}},
  "note": "Read-outs that look alike come from different tables or passages of the source.",
  "data": [
    {"smiles": "COc1cccc2c1C(=O)c1nccc3cc4c(c-2c13)OCO4", "note": "[Oxostephanine 1, oxostephanine]", "values": [
      {"measurement": "IC50", "setting": "184B5; Table 2A, SRB, 72 h", "value": "1.66 ± 0.56", "unit": "µM"},
      {"measurement": "IC50", "setting": "184B5; Table 3, non-cancer cell line", "value": "1.66 ± 0.56", "unit": "µM"},
      {"measurement": "Increase in effectiveness compared with stephanine (3), 184B5", "setting": "184B5; ratio of IC50", "value": "~4", "unit": "fold"},
      {"measurement": "IC50", "setting": "MCF 10A; Table 2A, SRB, 72 h", "value": "2.49 ± 0.11", "unit": "µM"},
      {"measurement": "IC50", "setting": "MCF 10A; Table 3, non-cancer cell line", "value": "2.49 ± 0.11", "unit": "µM"},
      {"measurement": "IC50", "setting": "MDA-MB-231; Homo sapiens, MDA-MB-231, Table 2A, SRB, 72 h, read-out: IC50 (μM ± SD) MDA-MB-231", "value": "2.67 ± 0.29", "unit": "µM"},
      {"measurement": "Selectivity index (SI) 184B5 versus MDA-MB-231", "setting": "MDA-MB-231; Table 2B, non-cancer 184B5 vs cancer MDA-MB-231", "value": 0.62},
      {"measurement": "Selectivity index (SI) MCF10A versus MDA-MB-231", "setting": "MDA-MB-231; Table 2B, non-cancer MCF10A vs cancer MDA-MB-231", "value": 0.93},
      {"measurement": "Time to inhibition of proliferation", "setting": "MDA-MB-231 cells; MDA-MB-231", "value": "≤ 12", "unit": "h"},
      {"measurement": "Apoptotic effect compared to camptothecin", "setting": "MDA-MB-231 cells; MDA-MB-231, 10 μM, 1-way ANOVA p < 0.05", "value": "much stronger apoptotic effect"},
      {"measurement": "Time to start of apoptosis (Annexin V)", "setting": "MDA-MB-231 cells; MDA-MB-231, post-treatment", "value": "≤ 16", "unit": "h"},
      {"measurement": "IC50", "setting": "MDA-MB-468; Homo sapiens, MDA-MB-468, Table 2A, SRB, 72 h, read-out: IC50 (μM ± SD) MDA-MB-468", "value": "2.26 ± 0.54", "unit": "µM"},
      {"measurement": "Selectivity index (SI) 184B5 versus MDA-MB-468", "setting": "MDA-MB-468; Table 2B, non-cancer 184B5 vs cancer MDA-MB-468", "value": 0.73},
      {"measurement": "Selectivity index (SI) MCF10A versus MDA-MB-468", "setting": "MDA-MB-468; Table 2B, non-cancer MCF10A vs cancer MDA-MB-468", "value": 1.10},
      {"measurement": "IC50", "setting": "Aurora B", "value": "952 ± 467", "unit": "nM"},
      {"measurement": "IC50", "setting": "HeLa; Homo sapiens, HeLa", "value": 1.73, "unit": "µM"},
      {"measurement": "IC50", "setting": "HeLa", "value": "1.76 ± 0.2", "unit": "µM"},
      {"measurement": "Selectivity index (SI) 184B5 versus HeLa", "setting": "HeLa; Table 2B, non-cancer 184B5 vs cancer HeLa", "value": 0.94},
      {"measurement": "Selectivity index (SI) MCF10A versus HeLa", "setting": "HeLa; Table 2B, non-cancer MCF10A vs cancer HeLa", "value": 1.40},
      {"measurement": "Increase in effectiveness compared with stephanine (3), HeLa", "setting": "HeLa; ratio of IC50", "value": 2, "unit": "fold"},
      {"measurement": "IC50", "setting": "[1]", "value": "216 ± 31.5", "unit": "µM"},
      {"measurement": "IC50", "setting": "[1]; Plasmodium falciparum, W2, 72 h", "value": "216 to 226", "unit": "µM"},
      {"measurement": "SI W2 184B5", "setting": "[1]; Table 3, selectivity index between 184B5 and parasites W2", "value": 0.007},
      {"measurement": "IC50", "setting": "[2]", "value": "63.9 ± 18.4", "unit": "µM"},
      {"measurement": "IC50", "setting": "[2]; Plasmodium falciparum, 3D7, 72 h", "value": "63.9 to 276", "unit": "µM"},
      {"measurement": "SI 3D7 184B5", "setting": "[2]; Table 3, selectivity index between 184B5 and parasites 3D7", "value": 0.026},
      {"measurement": "SI 3D7 MCF10A", "setting": "[2]; Table 3, selectivity index between MCF10A and parasites 3D7", "value": 0.039},
      {"measurement": "Autophosphorylation of Aurora kinases A, B and C", "setting": "[3]", "value": "inhibits the auto-phosphorylation of all three Aurora kinases"}
    ]}
  ]
}
